Entries after “also recorded” stand apart in the source; their conditions may differ. Like-named read-outs stand apart in the source and are kept apart here.
Assays:
[1] = target: Jak2 (Homo sapiens, UniProt O60674); settings: cited from earlier work
[2] = target: T1, Jak2 (Rattus norvegicus, UniProt Q62689); assay: Phosphotyrosine assay of Jak2 in hearts subjected to ischemia/reperfusion; settings: ischemic heart, FIG. 6A
T1 construct: nuclear extracts from hearts subjected to ischemia/reperfusion in presence of absence of tyrphostin AG490 were immunoprecipitated; from tissue; host or cells: rat heart (nuclear extracts)
Description: Rats were pretreated with 5 or 50 μmol/L of tyrphostin AG490 24 h prior to ischemia/reperfusion followed by chronic administration of tyrphostin AG490 during the process of ischemia/reperfusion. A phosphotyrosine assay was performed. Briefly, nuclear extracts from hearts subjected to ischemia/reperfusion in presence of absence of tyrphostin AG490 were immunoprecipitated with anti-phosphotyrosine antibodies (4G10). Fifty microliters of 50% protein A-agarose, prewashed in lysis buffer (Upstate Biotechnology) was then added and the mixture was incubated for 2 hr at 4° C. Each sample was washed with washing buffer containing 150 mM NaCl, 50 mM Tris-HCL (pH 7.4), 5 mM EDTA, 0.25% Triton X-100, 2 mM phenylmethylsulfonyl fluoride, aprotinin (0.2 unit/ml), 1 mM Na3VO4, and 1 mM NaF. Samples were eluted in 2× Laernmli's sample buffer. Proteins were separated on a 7.5% SDS/polyacrylamide gel and transferred to nitrocellulose membrane, Nitropure (Micron Separations, Westboro, Mass.). Blots were probed with polyclonal antibody against Jak2 and developed according to the chemiluminescence protocol. Administration of tyrphostin AG490 in perfusion medium was inhibitory at both 5 and 50 μmol/L for pliosphorylation of Jak2, which was activated readily in the ischemic heart in absence of the inhibitor (FIG. 6A).

[3] = system: cardiomyocytes; assay: Cardiomyocyte apoptosis by TUNEL after ischemia/reperfusion; parameters: species or system rat; settings: FIG. 4C
Description: Immunohistochemical detection of apoptotic cells was carried out by use of terminal dUTP nick end-labeling (TUNEL), in which residues of digoxigenin-labeled dUTP are catalytically incorporated into the DNA by terminal deoxynucleotidyl transferase II. The cells were incubated with a sheep polyclonal anti-digoxigenin antibody followed by a FITC-conjugated rabbit anti-sheep IgG as a secondary antibody. The heart sections were washed in PBS 3 times, blocked with normal rabbit serum, and incubated with mouse monoclonal antibody recognizing cardiac myosin heavy chain (Biogenesis Ltd) followed by staining with TRIRC-conjugated rabbit anti-mouse IgG ([…] dilution, Dalco, Japan). The fluorescence staining was viewed with a confocal laser microscope (Olympus Co). The apoptoic cells were counted and expressed as percentage of total myocyte population. Ischemia was induced by a modified Langendorf-reperfusion method in rat hearts. Hearts from adult male rats were randomly divided into 4 groups and subjected to ischemia/reperfusion. In the ischemic group, hearts were perfused with Krebs-Henseleit buffer for 60 minutes, followed by 30 minutes of global ischemia. In the ischemic/reperfused group, hearts were perfused for 60 minutes, followed by 30 minutes of global ischemia and 120 minutes of reperfusion. Control group hearts were perfused for the same lengths of time.

[4] = system: angiotensinogen mRNA; assay: Angiotensinogen mRNA in hearts subjected to ischemia/reperfusion (primer extension assay); parameters: species or system rat; settings: 30 min ischemia and 120 min reperfusion
Description: Ischemia was induced by a modified Langendorf-reperfusion method in rat hearts. Hearts from adult male rats were randomly divided into 4 groups and subjected to ischemia/reperfusion. In the ischemic group, hearts were perfused with Krebs-Henseleit buffer for 60 minutes, followed by 30 minutes of global ischemia. In the ischemic/reperfused group, hearts were perfused for 60 minutes, followed by 30 minutes of global ischemia and 120 minutes of reperfusion. Control group hearts were perfused for the same lengths of time.
Rat hearts subjected to ischemia/reperfusion were tested to determine whether activation of the renin-angiotensin system, as reflected by an increase in angiotensinogen mRNA, occurs in ischemic injury. The level of angiotensinogen mRNA was analyzed by primer extension assay using gene-specific DNA probes. A DNA primer spanning the complementary sequence of the rat angiotensinogen cDNA between nucleotides 302 and 279 (5′-[…]-3′) SEQ ID NO: 1 was end-labeled and used to evaluate the expression of angiotensinogen mRNA in total RNA isolated from the rat heart. The primer extension protocol was performed according to instructions provided by the supplier (Progema). Rat GAPDH cDNA specific primer was used as control. There was a marked increase in mRNA level after 30 minutes of ischemia and 120 minutes of reperfusion (FIG. 5A). […]

[5] = system: hearts subjected to ischemia/reperfusion; settings: cited from earlier work
[6] = system: male C57/BL6 mice; assay: Transverse aortic constriction (TAC) induced left ventricular hypertrophy in mice; assay type: in vivo
Description: Pressure overload was produced by transverse aortic constriction (TAC) to induce left ventricular hypertrophy (FIG. 1). Briefly, male C57/BL6 mice, weighing 20 to 24 grams, were anesthetized by intra-peritoneal injection of a cocktail of ketamine (100 mg/kg) and xylazine ([…]). The mice were shaved, restrained, and orally intubated (under direct vision via a vertical cervical incision) using a 22 guage blunt feeding needle. Respiration was artificially controlled (tidal volume of 0.1 to 0.3 ml) at a respiratory rate of 110 to 150 breaths/minute using a ventilator (Harvard Apparatus Rodent Ventilator, model 683). A median sternotomy was performed and the sternum retracted. The thymus was retracted anteriorly and the aortic arch identified and ligated (using 8.0 nylon suture; Ethicon) between the innominate and left common carotid artery with an overlying 27-guage needle; and then the needle removed to leave a discrete region of stenosis. The chest was then closed in two layers (using 6.0 vicryl suture, Ethicon) and the pneumothorax evacuated. Some mice were subjected to a sham operation in which the aortic arch was visualized but not banded. The mice were then extubated and monitored post-op for 3 to 12 hours. The survival rate at the end of the learning period is greater than 90%.
Nine days post-op, the hearts were removed from heparinized (500 U) mice and euthanized with a lethal dose of pentobarbital (150 mg/kg). The hearts were analyzed by visual inspection of a cross-section of the heart (FIG. 2A), determination of heart to body weight ratio (FIG. 2B), and light microscopy of the cardiomyocytes in the left ventricular (FIG. 2C), and activation of artiel natuiretic factor (ANF), a specific molecular marker for hypertrophy (FIG. 3). Based on these determinations, all trans-aortic constricted mice developed well-defined left ventricular hypertrophy.
To determine whether tyrphostin AG490 could reverse the hypertrophy induced by traverse aortic constriction, tyrphostin AG490 (5 μM) was administered to the mice, intra-peritoneal, 24 hours before being subjected to transverse aortic constriction and every 24 hours thereafter for the duration of the study (9 days).

Sequence of Jak2 (Homo sapiens, UniProt O60674) (O60674 whole entry, species assumed, the tested form may be a part): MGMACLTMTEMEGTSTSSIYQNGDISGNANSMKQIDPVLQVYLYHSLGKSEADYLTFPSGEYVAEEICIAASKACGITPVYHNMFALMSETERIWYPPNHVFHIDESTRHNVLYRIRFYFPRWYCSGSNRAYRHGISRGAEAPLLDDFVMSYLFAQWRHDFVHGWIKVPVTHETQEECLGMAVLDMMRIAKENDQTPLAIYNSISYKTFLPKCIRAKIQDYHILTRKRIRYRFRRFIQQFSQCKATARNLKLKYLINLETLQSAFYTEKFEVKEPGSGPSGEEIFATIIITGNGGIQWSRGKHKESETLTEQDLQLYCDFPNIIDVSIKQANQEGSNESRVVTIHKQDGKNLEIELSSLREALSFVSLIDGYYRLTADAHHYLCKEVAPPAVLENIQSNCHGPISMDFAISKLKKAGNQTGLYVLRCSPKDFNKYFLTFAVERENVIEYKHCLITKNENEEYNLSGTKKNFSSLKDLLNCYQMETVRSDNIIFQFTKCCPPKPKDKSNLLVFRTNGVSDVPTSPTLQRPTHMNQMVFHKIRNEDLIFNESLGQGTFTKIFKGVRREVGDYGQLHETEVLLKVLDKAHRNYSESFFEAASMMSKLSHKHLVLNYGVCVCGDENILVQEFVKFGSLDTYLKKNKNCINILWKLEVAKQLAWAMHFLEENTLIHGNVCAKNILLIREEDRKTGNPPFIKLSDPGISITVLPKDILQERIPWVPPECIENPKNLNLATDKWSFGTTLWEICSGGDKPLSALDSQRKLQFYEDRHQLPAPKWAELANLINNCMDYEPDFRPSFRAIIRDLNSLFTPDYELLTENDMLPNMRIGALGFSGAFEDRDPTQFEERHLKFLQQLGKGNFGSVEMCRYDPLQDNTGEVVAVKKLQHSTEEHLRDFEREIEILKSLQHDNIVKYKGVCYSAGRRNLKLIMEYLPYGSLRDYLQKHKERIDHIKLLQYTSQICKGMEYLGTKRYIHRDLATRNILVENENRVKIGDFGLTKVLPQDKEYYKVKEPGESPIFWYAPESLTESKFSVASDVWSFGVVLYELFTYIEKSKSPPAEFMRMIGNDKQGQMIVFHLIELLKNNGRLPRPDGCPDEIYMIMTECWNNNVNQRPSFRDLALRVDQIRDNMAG
T1 sequence (Q62689 whole entry, the tested form may be a part): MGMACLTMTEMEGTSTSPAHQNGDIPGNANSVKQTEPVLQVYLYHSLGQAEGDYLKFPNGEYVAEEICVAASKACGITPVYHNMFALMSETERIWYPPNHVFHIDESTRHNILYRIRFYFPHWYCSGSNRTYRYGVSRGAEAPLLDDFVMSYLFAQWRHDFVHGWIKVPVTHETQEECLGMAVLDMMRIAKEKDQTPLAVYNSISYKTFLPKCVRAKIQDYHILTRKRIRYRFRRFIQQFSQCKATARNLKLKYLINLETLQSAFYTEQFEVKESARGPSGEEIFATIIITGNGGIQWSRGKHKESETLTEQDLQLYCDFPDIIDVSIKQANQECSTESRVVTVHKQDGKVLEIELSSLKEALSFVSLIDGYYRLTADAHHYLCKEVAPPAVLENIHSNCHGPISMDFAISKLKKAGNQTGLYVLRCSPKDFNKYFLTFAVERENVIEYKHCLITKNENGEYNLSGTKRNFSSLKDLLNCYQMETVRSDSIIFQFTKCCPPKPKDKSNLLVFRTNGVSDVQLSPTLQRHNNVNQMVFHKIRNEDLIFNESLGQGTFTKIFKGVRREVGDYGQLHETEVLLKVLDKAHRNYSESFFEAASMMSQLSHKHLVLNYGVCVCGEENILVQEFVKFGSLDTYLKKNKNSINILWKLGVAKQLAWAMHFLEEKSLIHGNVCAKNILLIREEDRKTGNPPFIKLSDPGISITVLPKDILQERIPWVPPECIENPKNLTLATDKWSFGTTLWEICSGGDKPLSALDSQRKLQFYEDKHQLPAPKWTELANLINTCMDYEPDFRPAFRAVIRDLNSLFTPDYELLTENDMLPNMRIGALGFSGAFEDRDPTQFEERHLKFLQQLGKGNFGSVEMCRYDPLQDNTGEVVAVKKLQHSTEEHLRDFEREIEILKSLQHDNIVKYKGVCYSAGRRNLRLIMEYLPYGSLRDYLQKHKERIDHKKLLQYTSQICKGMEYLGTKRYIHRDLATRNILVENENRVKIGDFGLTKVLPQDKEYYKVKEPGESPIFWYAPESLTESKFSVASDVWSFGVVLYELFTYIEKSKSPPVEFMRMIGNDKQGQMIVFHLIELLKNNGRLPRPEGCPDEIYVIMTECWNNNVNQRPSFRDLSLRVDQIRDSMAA

- phosphorylation of Jak2 ([2]; 5 μmol/L in perfusion medium): inhibitory
- phosphorylation of Jak2 ([2]; 50 μmol/L in perfusion medium): inhibitory
SMILES: N#C/C(=C\c1ccc(O)c(O)c1)C(=O)NCc1ccccc1 [tyrphostin AG490]
- Jak2 inhibition, selectivity ([1]; listed as AG490): selectively inhibits Jak2
- Jak2 inhibition, selectivity ([1]; listed as Tyrphostin AG490): selective, specific, and potent
- apoptotic cell death of cardiomyocytes [3]: marked lowering of apoptotic cell death; also recorded: reduction of apoptosis of cardiomyocytes
- angiotensinogen mRNA level [4]: inhibited the stimulation of the angiotensinogen mRNA level; also recorded: inhibition of angiotensinogen mRNA
- cardioprotection / myocardial damage due to ischemia [5]: afford cardioprotection
- reversal of hypertrophy induced by transverse aortic constriction ([6]; 5 μM intra-peritoneal, 24 h before TAC and every 24 h for 9 days): remarkable reversal of hypertrophy
- LVH by visual inspection of cross section of the heart ([6]; FIG. 2A, TAC mice): decrease in LVH
- ratio of heart weight to body weight ([6]; FIG. 2B, TAC mice): decrease in ratio of heart weight to body weight
- hypertrophy of cardiomyocytes of left ventricle by light microscopy ([6]; FIG. 2C, TAC mice): decrease in hypertrophy
- ANF (atrial natriuretic factor, marker for hypertrophy) ([6]; FIG. 3, during cardiac hypertrophy): ANF inhibition
